Columns and labels:
[1] = tested on: Tyrosine-protein kinase ABL1 (Homo sapiens), P00519 [F317I]; assay: Binding affinity to human phosphorylated ABL1 F317I mutant (S229 to K512 residues) expressed in mammalian expression system assessed as residual binding level at 10 uM by Kinomescan method relative to control
[2] = molecular target: Cyclin-dependent kinase 2 (Homo sapiens) (UniProt P24941); assay: Binding affinity to wild-type human full length CDK2 (M1 to L298 residues) expressed in bacterial expression system assessed as residual binding level at 10 uM by Kinomescan method relative to control
[3] = molecular target: Casein kinase I isoform epsilon (Homo sapiens) (UniProt P49674); assay: Binding affinity to wild-type human full length CSNK1E (M1 to K416 residues) expressed in bacterial expression system assessed as residual binding level at 10 uM by Kinomescan method relative to control
[4] = molecular target: Serine/threonine-protein kinase DCLK2 (Homo sapiens) (UniProt Q8N568); assay: Binding affinity to wild-type human partial length DCAMKL2 (K273 to V664 residues) expressed in bacterial expression system assessed as residual binding level at 10 uM by Kinomescan method relative to control
[5] = molecular target: Serine/threonine-protein kinase 17B (Homo sapiens) (UniProt O94768); assay: Binding affinity to wild-type human full length DRAK2 (M1 to C372 residues) expressed in bacterial expression system assessed as residual binding level at 10 uM by Kinomescan method relative to control
[6] = molecular target: Eukaryotic translation initiation factor 2-alpha kinase 1 (Homo sapiens) (UniProt Q9BQI3); assay: Binding affinity to wild-type human partial length EIF2AK1 (Q147 to E603 residues) expressed in mammalian expression system assessed as residual binding level at 10 uM by Kinomescan method relative to control
[7] = molecular target: Mitogen-activated protein kinase 4 (Homo sapiens) (UniProt P31152); assay: Binding affinity to wild-type human partial length ERK4 (M1 to L365 residues) expressed in bacterial expression system assessed as residual binding level at 10 uM by Kinomescan method relative to control
[8] = molecular target: Glycogen synthase kinase-3 beta (Homo sapiens) (UniProt P49841); assay: Binding affinity to wild-type human full length GSK3B (M1 to T433 residues) expressed in mammalian expression system assessed as residual binding level at 10 uM by Kinomescan method relative to control
[9] = molecular target: Tyrosine-protein kinase Lck (Homo sapiens) (UniProt P06239); assay: Binding affinity to wild-type human partial length LCK (R207 to P509 residues) expressed in bacterial expression system assessed as residual binding level at 10 uM by Kinomescan method relative to control
[10] = molecular target: Myosin light chain kinase (Homo sapiens) (UniProt Q32MK0); assay: Binding affinity to wild-type human partial length MLCK (D488 to K800 residues) expressed in bacterial expression system assessed as residual binding level at 10 uM by Kinomescan method relative to control
[11] = molecular target: Myosin light chain kinase, smooth muscle (Homo sapiens) (UniProt Q15746); assay: Binding affinity to wild-type human full length MYLK (M854 to E1845 residues) expressed in mammalian expression system assessed as residual binding level at 10 uM by Kinomescan method relative to control
[12] = molecular target: Myosin-IIIa (Homo sapiens) (UniProt Q8NEV4); assay: Binding affinity to wild-type human partial length MYO3A (M1 to K338 residues) expressed in bacterial expression system assessed as residual binding level at 10 uM by Kinomescan method relative to control
[13] = molecular target: Serine/threonine-protein kinase Nek7 (Homo sapiens) (UniProt Q8TDX7); assay: Binding affinity to wild-type human full length NEK7 (M1 to S302 residues) expressed in bacterial expression system assessed as residual binding level at 10 uM by Kinomescan method relative to control
[14] = molecular target: Serine/threonine-protein kinase PAK 2 (Homo sapiens) (UniProt Q13177); assay: Binding affinity to wild-type human partial length PAK2 (P151 to R525 residues) expressed in bacterial expression system assessed as residual binding level at 10 uM by Kinomescan method relative to control
[15] = molecular target: Serine/threonine-protein kinase PAK 5 (Homo sapiens) (UniProt Q9P286); assay: Binding affinity to wild-type human partial length PAK7 (Y400 to H719 residues) expressed in bacterial expression system assessed as residual binding level at 10 uM by Kinomescan method relative to control
[16] = tested on: Phosphatidylinositol 4,5-bisphosphate 3-kinase catalytic subunit alpha isoform (Homo sapiens), P42336 [H1047L]; assay: Binding affinity to human partial length PIK3CA H1047L mutant (R108 to N1068 residues) expressed in mammalian expression system assessed as residual binding level at 10 uM by Kinomescan method relative to control
[17] = molecular target: Serine/threonine-protein kinase pim-1 (Homo sapiens) (UniProt P11309); assay: Binding affinity to wild-type human partial length PIM1 (A15 to K313 residues) expressed in bacterial expression system assessed as residual binding level at 10 uM by Kinomescan method relative to control
[18] = molecular target: Receptor-interacting serine/threonine-protein kinase 1 (Homo sapiens) (UniProt Q13546); assay: Binding affinity to wild-type human partial length RIPK1 (M1 to K305 residues) expressed in bacterial expression system assessed as residual binding level at 10 uM by Kinomescan method relative to control
[19] = molecular target: Dual serine/threonine and tyrosine protein kinase (Homo sapiens) (UniProt Q6XUX3); assay: Binding affinity to wild-type human full length RIPK5 (M1 to T929 residues) expressed in mammalian expression system assessed as residual binding level at 10 uM by Kinomescan method relative to control
[20] = molecular target: Proto-oncogene tyrosine-protein kinase ROS (Homo sapiens) (UniProt P08922); assay: Binding affinity to wild-type human partial length ROS1 (A1921 to N2240 residues) expressed in bacterial expression system assessed as residual binding level at 10 uM by Kinomescan method relative to control
[21] = molecular target: High affinity nerve growth factor receptor (Homo sapiens) (UniProt P04629); assay: Binding affinity to wild-type human partial length TRKA (G475 to G790 residues) expressed in mammalian expression system assessed as residual binding level at 10 uM by Kinomescan method relative to control
[22] = molecular target: Serine/threonine-protein kinase WNK4 (Homo sapiens) (UniProt Q96J92); assay: Binding affinity to wild-type human partial length WNK4 (A31 to D461 residues) expressed in mammalian expression system assessed as residual binding level at 10 uM by Kinomescan method relative to control
[23] = molecular target: Mitogen-activated protein kinase kinase kinase 19 (Homo sapiens) (UniProt Q56UN5); assay: Binding affinity to wild-type human partial length YSK4 (T1019 to H1328 residues) expressed in mammalian expression system assessed as residual binding level at 10 uM by Kinomescan method relative to control
[24] = molecular target: Tyrosine-protein kinase ZAP-70 (Homo sapiens) (UniProt P43403); assay: Binding affinity to wild-type human partial length ZAP70 (D20 to G299 residues) expressed in mammalian expression system assessed as residual binding level at 10 uM by Kinomescan method relative to control

Work on O=C(Nc1cc(-c2cn(CCNc3c4c(nc5ccccc35)CCCC4)nn2)ccn1)Nc1cccc2c1C1CCCCN1C2=O (racemic) yielded an Activity [1] of 47%, an Activity [2] of 74% and an Activity [3] of 0.15%. It also gave an Activity [4] of 90%, an Activity [5] of 1.7% and an Activity [6] of 100%. It also gave an Activity [7] of 4.7%, an Activity [8] of 17% and an Activity [9] of 23%. It also gave an Activity [10] of 0.35%, an Activity [11] of 52% and an Activity [12] of 75%. For the same compound, the Activity [13] was 27%, the Activity [14] was 34% and the Activity [15] was 8.9%. The Activity [16] was 93%, the Activity [17] was 25% and the Activity [18] was 3.3%. The Activity [19] was 49%, the Activity [20] was 100% and the Activity [21] was 8.6%. It also gave an Activity [22] of 100%, an Activity [23] of 8.5% and an Activity [24] of 60%.

Reference: ChEMBL document CHEMBL4390652, “Design, biological evaluation and X-ray crystallography of nanomolar multifunctional ligands targeting simultaneously acetylcholinesterase and glycogen synthase kinase-3” (Eur J Med Chem, 2019)
